Each block holds one compound with its values, some of them ahead of it. Starred links: 1 amine or outer side, 2 acyl side, 3 side chain; linkers in the order of their positions; H or OH if unused. Positions of bridges follow the written chain, without caps; N, C: chain ends. Non-standard residues stand in square brackets, D forms with d. Residues, ends and D or L forms follow the SMILES beside them. TATA = O=C(CC[*:1])N1CN(C(=O)CC[*:2])CN(C(=O)CC[*:3])C1; Phe(4-F) = N[C@@H](Cc1ccc(F)cc1)C(=O)O; β3hR = N=C(N)NCCC[C@H](N)CC(=O)O
Key:
[1] = tested on: intrinsic coagulation pathway; assay: aPTT in human plasma (Example 2); format: biochemical
Description: Coagulation times (aPTT, PT) were determined in human plasma using a blood coagulation analyzer (STart. Hemostasis coagulation analyzer, Diagnostica Stago). Extrinsic coagulation was triggered with Innovin (recombinant human tissue factor, synthetic phospholipids and calcium in stabilized HEPES buffer system; Dade Behring; Siemens). Intrinsic coagulation was triggered with Pathromtin* SL (Siemens). Pooled normal human plasma used in this study was provided by Innovative research (USA).
The ability to selectively suppress the intrinsic coagulation pathway was assessed in in vitro coagulation assays. Activated partial thromboplastin time (aPTT) and prothrombin time (PT) measure the time to coagulation upon initiation of coagulation either via the intrinsic (aPTT) or the extrinsic pathway (PT). These tests have been performed in human plasma in the presence of different concentrations of FXIIa-inhibitors. Selective FXIIa inhibition is expected to increase aPTT but not PT. […] At a concentration of 5 μM peptide inhibitor no coagulation via the intrinsic pathway occurred within 120 s. Additionally, there was a correlation between inhibitory activity against FXIIa and extent of aPTT prolongation.

human β-FXIIa [2] = target: T1, human β-FXIIa (Homo sapiens, UniProt P00748); assay: Protease inhibition assay (Example 2); format: biochemical; settings: for improvement of inhibitory activity / affinity: relative to parent peptide 2
T1 construct: human β-FXIIa, a naturally occurring proteolytic product of FXIIa comprising only the catalytic domain; purchased Molecular Innovations HFXIIAB
T1 sequence (P00748 373-615 limits assumed, other chains not shown): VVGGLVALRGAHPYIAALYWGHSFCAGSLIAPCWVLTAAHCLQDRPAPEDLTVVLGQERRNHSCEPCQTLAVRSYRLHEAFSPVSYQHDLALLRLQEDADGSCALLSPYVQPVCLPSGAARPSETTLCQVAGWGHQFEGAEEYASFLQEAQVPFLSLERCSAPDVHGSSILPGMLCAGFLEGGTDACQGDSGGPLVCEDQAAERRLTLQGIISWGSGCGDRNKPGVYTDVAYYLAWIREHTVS
Description: The inhibitory activity of bicyclic peptides was determined by incubation with proteases and quantification of their residual activity with a fluorogenic substrate. Residual enzymatic activities were measured in buffer containing 10 mM Tris-CI, pH 7.4, 150 mM NaCl, 10 mM MgCl2, 1 mM CaCl2, 0.1% w/v BSA, 0.01% v/v Triton-X100, and 5% v/v DMSO in a volume of 150 μL. In a first series of experiments 50 μM of the fluorogenic substrate Z-Gly-Gly-Arg-AMC and 2.5 nM of enzyme (human p-FXIIa, HFXIIAB; Molecular Innovations) was used.
Dilutions of peptides were prepared ranging from 0.00001-4 μM. Fluorescence intensity was measured with an Infinite M200Pro fluorescence plate reader (excitation at 368 nm, emission at 467 nm; Tecan, Männedorf, Switzerland). The reactions were performed at 25° C., Sigmoidal curves were fitted to the data using the following dose response equation wherein x=peptide concentration, y=% activity of reaction without peptide, A1=100%, A2=0%, p=1. IC50 values were derived from the fitted curve.

human β-FXIIa [3] = target: T1, human β-FXIIa; assay: Protease inhibition assay (Example 3); format: biochemical; settings: for improvement of Ki / binding: relative to FXII618 (1)
Description: The inhibitory activity of the synthesized bicyclic peptides was determined by incubation with the protease and quantification of the residual activity at various peptide concentrations using a fluorogenic substrate. A 2 mM (by weight) stock solution in H2O was made for each peptide. For the assay, serial dilutions were made from the peptide stock solution using aqueous buffer containing 10 mM TRIS, 150 mM NaCl, 10 mM MgCl (hexahydrate), 1 mM CaCl2 (dihydrate), 0.01% (v/v) Triton X-100, 0.1% (w/v) BSA and pH adjusted to 7.4. The final concentration of human 3-FXIIa (HFXIIAB; Molecular Innovations) was 1 nM or 0.5 nM. […] The final concentration of the fluorogenic substrate Boc-Q-G-R-AMC (Bachem) was 50 μM and the final DMSO content was 5%. The fluorescence was measured using an Infinite M200 Pro plate reader (Tecan) with filters 368 nm for excitation and 467 nm for emission. The measurement was performed for 60 min with a read every minute at 25° C. IC50 and Ki values were calculated using GraphPad Prism 5 software.

FXIIa = settings: cited from earlier work
in vitro = settings: human, plasma
Description: Peptide (2 μl of 2 mM in H2O) was added to 398 μl human plasma (final peptide concentration was 10 μM in 400 μl final volume). The mixture was incubated in the water bath at 37° C. At 8 different time points (0 h, 30 min, 1 h, 2 h, 4 h, 8 h, 12 h, 24 h and in some cases 48 h) a sample of 30 μl was removed, diluted to 200 μl with the same buffer used for protease inhibition assay (see above) and heat-inactivated for 20 min at 65° C. During this step proteases present in plasma are being inactivated, that would otherwise interfere with the subsequently performed enzymatic assay. […] Before analysis, plasma samples were centrifuged for 5 min at 16′000 g and the supernatant was collected. A twofold dilution series ranging from 0.0005-0.5 μM was prepared. IC50 values were derived from the fitted curve using the equation indicated above. Residual inhibition in % was calculated using the following formula: IC50, 0h/IC50, xh*100 wherein IC50, 0h is the functional strength of the inhibitor at time point 0 and IC50, xh the functional strength of inhibitor after one of the different plasma incubation period mentioned above.
The activity of the plasma proteases was heat-inactivated by incubation of the samples at 65° C. for 10 minutes.

Compound: CC(C)C[C@@H]1NC(=O)[C@H](CCC(N)=O)NC(=O)[C@H](CCCNC(=N)N)NC(=O)[C@@H]2CSCCC(=O)N3CN(CN(C3)C(=O)CCSC[C@H](NC(=O)[C@@H](N)CCCNC(=N)N)C(=O)N[C@@H](Cc3ccc(F)cc3)C(=O)N[C@@H](CCCNC(=N)N)C(=O)N[C@@H](CC(C)C)C(=O)N3CCC[C@H]3C(=O)N2)C(=O)CCSC[C@@H](C(=O)N[C@@H](CCCNC(=N)N)C(N)=O)NC(=O)[C@H](CCCNC(=N)N)NC1=O [peptide 61]
aPTT prolongation compared with peptide 1 [1]: significantly increased aPTT prolongation

Ki (human β-FXIIa [2]): 932 ± 80 nM
Compound: CC(C)C[C@@H]1NC(=O)[C@H](CCC(N)=O)NC(=O)[C@H](CCCNC(=N)N)NC(=O)[C@@H]2CSCCC(=O)N3CN(CN(C3)C(=O)CCSC[C@H](N)C(=O)N[C@@H](Cc3ccccc3)C(=O)N[C@@H](CCCNC(=N)N)C(=O)N[C@@H](CC(C)C)C(=O)N3CCC[C@H]3C(=O)N2)C(=O)CCSC[C@@H](C(=O)N[C@@H](CCCNC(=N)N)C(N)=O)NC(=O)[C@H](CCCNC(=N)N)NC1=O [peptide 62] (H-CFRLPCRQLRCR-NH2; linker 1-6-11 via TATA)

Ki (human β-FXIIa [3]): 18 ± 2 nM
Compound: CC(C)C[C@@H]1NC(=O)[C@H](CCC(N)=O)NC(=O)[C@H](CCCNC(=N)N)NC(=O)[C@@H]2CSCCC(=O)N3CN(CN(C3)C(=O)CCSC[C@H](NC(=O)[C@@H](N)CCCNC(=N)N)C(=O)N[C@@H](Cc3ccccc3)C(=O)N[C@@H](CCCNC(=N)N)C(=O)N[C@@H](CC(C)C)C(=O)N3CCC[C@H]3C(=O)N2)C(=O)CCSCC[C@@H](C(=O)N[C@@H](CCCNC(=N)N)C(N)=O)NC(=O)C[C@H](CCCNC(=N)N)NC1=O [compound 107]

reduction of inhibitory activity / affinity (human β-FXIIa [2]; relative to parent peptide (peptide 2 or peptide 1)): 10 fold
Compound: CC(C)C[C@@H]1NC(=O)[C@H](CCC(N)=O)NC(=O)[C@H](CCCNC(=N)N)NC(=O)[C@@H]2CSCCC(=O)N3CN(CN(C3)C(=O)CCSC[C@H](NC(=O)[C@@H](N)CCCNC(=N)N)C(=O)N[C@@H](Cc3ccccc3)C(=O)N[C@@H](CCCCN)C(=O)N[C@@H](CC(C)C)C(=O)N3CCC[C@H]3C(=O)N2)C(=O)CCSC[C@@H](C(=O)N[C@@H](CCCNC(=N)N)C(=O)N[C@@H](Cc2c[nH]c3ccccc23)C(N)=O)NC(=O)[C@H](CCCNC(=N)N)NC1=O [peptide 10] (H-RCFKLPCRQLRCRW-NH2; linker 2-7-12 via TATA)

Compound: N=C(N)NCCCC(NC(=O)C(Cc1ccccc1)NC(=O)C1CCCN1)C(=O)CCl [PCK, D-Pro-Phe-Arg chloromethyl ketone, reference compound]
IC50 (FXIIa): 180 nM

Ki (human β-FXIIa [2]): 18.5 to 43.1 nM | half-life at 10 μM (in vitro): 21.7 ± 2.5 h
Compound: CC(C)C[C@@H]1NC(=O)[C@H](CCC(N)=O)NC(=O)[C@H](CCCNC(=N)N)NC(=O)[C@@H]2CSCCC(=O)N3CN(CN(C3)C(=O)CCSC[C@H](NC(=O)[C@@H](N)CCNC(=N)N)C(=O)N[C@@H](Cc3ccccc3)C(=O)N[C@@H](CCCNC(=N)N)C(=O)N[C@@H](CC(C)C)C(=O)N3CCC[C@H]3C(=O)N2)C(=O)CCSC[C@@H](C(=O)N[C@@H](CCCNC(=N)N)C(N)=O)NC(=O)[C@H](CCCNC(=N)N)NC1=O [peptide 71]

half-life at 10 μM (in vitro): 144 ± 30 h
Compound: CC(C)C[C@@H]1NC(=O)[C@H](CCC(N)=O)NC(=O)[C@H](Cc2c[nH]cn2)NC(=O)[C@@H]2CSCCC(=O)N3CN(CN(C3)C(=O)CCSC[C@H](NC(=O)[C@@H](CO)NC(=O)[C@H](N)CCCNC(=N)N)C(=O)N[C@@H](Cc3ccc(F)cc3)C(=O)N[C@@H](CCCNC(=N)N)C(=O)N[C@@H](CC(C)C)C(=O)N3CCC[C@H]3C(=O)N2)C(=O)CCSC[C@@H](C(=O)N[C@@H](CCCNC(=N)N)C(N)=O)NC(=O)C[C@H](CCCNC(=N)N)NC1=O [JS33] (H-[dR][dS]C[Phe(4-F)]RLPCHQL[β3hR]CR-NH2; linker 3-8-13 via TATA; N-terminus and C-terminus assumed)

Ki (human β-FXIIa [3]): 5.4 ± 0.1 nM | improvement of Ki / binding (human β-FXIIa [3]): 4 fold
Compound: CC(C)C[C@@H]1NC(=O)[C@H](CCC(N)=O)NC(=O)[C@H](CCCNC(=N)N)NC(=O)[C@@H]2CSCCC(=O)N3CN(CN(C3)C(=O)CCSC[C@H](NC(=O)[C@@H](N)CCCNC(=N)N)C(=O)N[C@@H](Cc3ccccc3)C(=O)N[C@@H](CCCNC(=N)N)C(=O)N[C@@H](CC(C)C)C(=O)N3CCC[C@H]3C(=O)N2)C(=O)CCSC[C@@H](C(=O)N[C@@H](CCCNC(=N)N)C(N)=O)NC(=O)C[C@H](CCCNC(=N)N)NC1=O [compound 100]

improvement of inhibitory activity / affinity (human β-FXIIa [2]): around 3 fold
Compound: CC(C)C[C@@H]1NC(=O)[C@H](CCC(N)=O)NC(=O)[C@H](CCCNC(=N)N)NC(=O)[C@@H]2CSCCC(=O)N3CN(CN(C3)C(=O)CCSC[C@H](NC(=O)[C@@H](N)CCCNC(=N)N)C(=O)N[C@@H](Cc3cccnc3)C(=O)N[C@@H](CCCNC(=N)N)C(=O)N[C@@H](CC(C)C)C(=O)N3CCC[C@H]3C(=O)N2)C(=O)CCSC[C@@H](C(=O)N[C@@H](CCCNC(=N)N)C(=O)N[C@@H](Cc2c[nH]c3ccccc23)C(N)=O)NC(=O)[C@H](CCCNC(=N)N)NC1=O [peptide 54]

half-life at 10 μM (in vitro): 38.7 h
Compound: CC(C)C[C@@H]1NC(=O)[C@H](CCC(N)=O)NC(=O)[C@H](Cc2c[nH]cn2)NC(=O)[C@@H]2CSCCC(=O)N3CN(CN(C3)C(=O)CCSC[C@H](NC(=O)[C@@H](CO)NC(=O)[C@H](N)CCCNC(=N)N)C(=O)N[C@@H](Cc3ccc(F)cc3)C(=O)N[C@@H](CCCNC(=N)N)C(=O)N[C@@H](CC(C)C)C(=O)N3CCC[C@H]3C(=O)N2)C(=O)CCSC[C@@H](C(=O)N[C@@H](CCCNC(=N)N)C(N)=O)NC(=O)[C@H](CCCNC(=N)N)NC1=O [JS34] (H-[dR][dS]C[Phe(4-F)]RLPCHQLRCR-NH2; linker 3-8-13 via TATA; N-terminus and C-terminus assumed)

improvement of Ki / binding (human β-FXIIa [3]): 1.3 fold
Compound: CC(C)C[C@@H]1NC(=O)[C@H](CCC(N)=O)NC(=O)[C@H](CCCNC(=N)N)NC(=O)[C@@H]2CSCCC(=O)N3CN(CN(C3)C(=O)CCSC[C@H](NC(=O)[C@@H](N)CCCNC(=N)N)C(=O)N[C@@H](Cc3ccccc3)C(=O)N[C@@H](CCCNC(=N)N)C(=O)N[C@@H](CC(C)C)C(=O)N3CCC[C@H]3C(=O)N2)C(=O)CCSCC[C@@H](C(=O)N[C@@H](CCCNC(=N)N)C(N)=O)NC(=O)[C@H](CCCNC(=N)N)NC1=O [peptide 105]

improvement of inhibitory activity / affinity (human β-FXIIa [2]): 2.5 fold
Compound: Cc1cccc(C[C@@H]2NC(=O)[C@@H](NC(=O)[C@@H](N)CCCNC(=N)N)CSCCC(=O)N3CN4CN(C3)C(=O)CCSC[C@H](NC(=O)[C@@H]3CCCN3C(=O)[C@H](CC(C)C)NC(=O)[C@H](CCCNC(=N)N)NC2=O)C(=O)N[C@@H](CCCNC(=N)N)C(=O)N[C@@H](CCC(N)=O)C(=O)N[C@@H](CC(C)C)C(=O)N[C@@H](CCCNC(=N)N)C(=O)N[C@H](C(=O)N[C@@H](CCCNC(=N)N)C(=O)N[C@@H](Cc2c[nH]c3ccccc23)C(N)=O)CSCCC4=O)c1 [peptide 52]

improvement of inhibitory activity / affinity (human β-FXIIa [2]): 2 fold
Compound: CC(C)C[C@@H]1NC(=O)[C@H](CCC(N)=O)NC(=O)[C@H](CCCNC(=N)N)NC(=O)[C@@H]2CSCCC(=O)N3CN(CN(C3)C(=O)CCSC[C@H](NC(=O)[C@@H](N)CCCNC(=N)N)C(=O)N[C@@H](Cc3ccccc3F)C(=O)N[C@@H](CCCNC(=N)N)C(=O)N[C@@H](CC(C)C)C(=O)N3CCC[C@H]3C(=O)N2)C(=O)CCSC[C@@H](C(=O)N[C@@H](CCCNC(=N)N)C(=O)N[C@@H](Cc2c[nH]c3ccccc23)C(N)=O)NC(=O)[C@H](CCCNC(=N)N)NC1=O [peptide 56]

half-life at 10 μM (in vitro): 21.9 h
Compound: CC(C)C[C@@H]1NC(=O)[C@H](CCC(N)=O)NC(=O)[C@H](CCCNC(=N)N)NC(=O)[C@@H]2CSCCC(=O)N3CN(CN(C3)C(=O)CCSC[C@H](NC(=O)[C@@H](CO)NC(=O)[C@H](N)CCCNC(=N)N)C(=O)N[C@@H](Cc3ccc(F)cc3)C(=O)N[C@@H](CCCNC(=N)N)C(=O)N[C@@H](CC(C)C)C(=O)N3CCC[C@H]3C(=O)N2)C(=O)CCSC[C@@H](C(=O)N[C@@H](CCCNC(=N)N)C(N)=O)NC(=O)C[C@H](CCCNC(=N)N)NC1=O [JS35] (H-[dR][dS]C[Phe(4-F)]RLPCRQL[β3hR]CR-NH2; linker 3-8-13 via TATA; N-terminus and C-terminus assumed)
